Measurements published in PMC5789092 (Scientific Reports, 2018).
Read-outs that look alike come from different tables or passages of the source.

Legend:
[1] = tested on: PC-3 (human prostate cancer); assay: SRB cytotoxicity assay, PC-3; type: cell-based; conditions: 72 h
[2] = tested on: HEp-2 (human larynx epidermal cancer); assay: SRB cytotoxicity assay, HEp-2; type: cell-based; conditions: 72 h, mean ± SD
Description: (§1) All the synthesized derivatives of 1 and 2 were screened for their anticancer activities against four human cancer cell lines (HeLa, PC-3, HEp-2 and HepG2) and two normal cell lines (CHO and HUVEC) using the sulforhodamine B (SRB) assay.
(§2) PC-3 (human prostate cancer), HepG2 (human liver cancer) and CHO (Chinese hamster ovary) cell lines were obtained from Shanghai Institute of Biochemistry and Cell Biology, Chinese Academy of Sciences. HeLa (human cervix cancer), HUVEC (human umbilical vein endothelial cells) and HEp-2 (human laryngeal cancer) cell lines were granted by Prof. Lei of college of life sciences, Northwest A&F University. The six cell lines were grown in RPMI-1640 (Gibco) containing 10% (v/v) thermally inactivated fetal bovine serum (FBS), penicillin (100 KU/L) and streptomycin (100 KU/L) at 37 °C in a 5% CO2 humidified incubator.
(§3) In vitro cytotoxicity was assessed by using the SRB colorimetric assay refer to previous methods[19],[42].

[3] = tested on: HUVEC (human umbilical vein endothelial cell); assay: SRB cytotoxicity assay, HUVEC normal cells; type: cell-based; conditions: Homo sapiens, HUVEC; 72 h, SRB, normal cell line
[4] = tested on: HepG2 (human liver cancer); assay: SRB cytotoxicity assay, HepG2; type: cell-based; conditions: 72 h
[5] = tested on: HeLa (human cervix cancer); assay: SRB cytotoxicity assay, HeLa; type: cell-based; conditions: 72 h, mean ± SD
[6] = tested on: CHO (Chinese hamster ovary); assay: SRB cytotoxicity assay, CHO normal cells; type: cell-based; conditions: Cricetulus griseus, 72 h, normal cell line
Description: as §1, §2, §3

[7] = tested on: HeLa, PC-3, HEp-2 and HepG2 cells; assay: SRB cytotoxicity, summary over the cancer cell lines; type: cell-based, human
[8] = tested on: PC-3 cells; assay: Cell cycle analysis (PI staining, flow cytometry); type: cell-based, human; conditions: PC-3, 48 h
Description: The cultured cells were treated with these compounds at the indicated concentrations for 48 h, then harvested, and analyzed by flow cytometry. […] Each experiment was performed in triplicate.
The cell cycle arrest on PC-3 and HepG2 cells was detected with PI staining assay (Sigma) as described previously[19]. After treatment with samples at the set concentrations for 48 h, cells were centrifuged and fixed in 70% ethanol at 4 °C refrigerator 12 h and then resuspended in PBS (100 μL RNase A and 400 μL PI). Cellular DNA content was measured using a FACSCalibur flow cytometer with Modfit LT 3.0 software. Twenty thousand cells were collected per sample. Mean values are presented from three independent experiments.

[9] = tested on: CHO (Chinese hamster ovary); conditions: footnote b; ref Xiang et al.[22]; cited from earlier work
[10] = tested on: HEp-2 (human larynx epidermal cancer); conditions: footnote b; ref Xiang et al.[22]; cited from earlier work
[11] = mean ± SD, read-out: IC50 HepG2

C=C1C(=O)OC2CC3(C)C(=CC12)C(C)CCC3OC(C)=O (stereo not drawn) [1a, 1β-ethanoyl alantolactone]
IC50 ([1]; mean ± SD, read-out: IC50 PC-3): 8.1 ± 0.3 µM | IC50 [2]: 10.3 ± 1.8 µM | IC50 [3]: 12.3 ± 1.6 µM | IC50 [4, 11]: 6.3 ± 1.3 µM | IC50 [5]: 8.2 ± 1 µM | IC50 [6]: 10.3 ± 1.8 µM

C=C1C(=O)O[C@@H]2C[C@]3(C)C(=C[C@H]12)[C@@H](C)CC[C@H]3OC(=O)CCC(=O)O [1h, 1β-carboxypropionyl alantolactone]
IC50 ([1]; mean ± SD, read-out: IC50 PC-3): > 40 µM | IC50 [2]: > 40 µM | IC50 [3]: 39.5 ± 2.5 µM | IC50 [4, 11]: > 40 µM | IC50 [5]: > 40 µM

CC1CCC(O)C2(C)CC3OC(=O)C(C)C3C=C12 (stereo not drawn) [1r, (11 S)-1β-hydroxy alantolactone derivative]
IC50 ([1]; read-out: IC50 PC-3 (Table 3, C13-methylene modified derivatives)): > 50 µM | cytotoxic activity in words ([7]; SAR statement on Tables 2 and 3): loss of cytotoxic activity | IC50 ([4]; read-out: IC50 HepG2 (Table 3, C13-methylene modified derivatives)): > 50 µM

C=C1C(=O)O[C@@H]2C[C@]3(C)C(=C(C)CC[C@H]3OC(=O)c3ccccc3)C[C@H]12 [2b, 1β-benzoyl ivangustin]
IC50 ([1]; mean ± SD, read-out: IC50 PC-3): > 40 µM | IC50 [2]: > 40 µM | IC50 [4, 11]: > 40 µM | IC50 [5]: 27.9 ± 2.5 µM

C=C1C(=O)O[C@@H]2C[C@]3(C)C(=C(C)CC[C@H]3OC(=O)c3ccc(F)cc3)C[C@H]12 [2c, 1β-(4-fluorobenzoyl) ivangustin]
IC50 ([1]; mean ± SD, read-out: IC50 PC-3): > 40 µM | IC50 [2]: > 40 µM | IC50 [4, 11]: > 40 µM | IC50 [5]: > 40 µM

C=C1C(=O)O[C@@H]2C[C@@]3(C)C(=O)CCC(C)=C3C[C@H]12 [2d, 1-carbonyl-ivangustin]
IC50 ([1]; mean ± SD, read-out: IC50 PC-3): 7 ± 2.1 µM | IC50 [2]: 14.1 ± 2.9 µM | IC50 [3]: 10.5 ± 0.5 µM | IC50 [4, 11]: 7.7 ± 1.5 µM | IC50 [5]: 8.6 ± 1.4 µM | IC50 [6]: 12.1 ± 5.2 µM

C=C1C(=O)OC2CC3(C)C(=CC12)C(C)CCC3O (stereo not drawn) [compound 1, 1β-hydroxyalantolactone]
IC50 ([1]; mean ± SD, read-out: IC50 PC-3): 4.5 ± 0.7 µM | IC50 ([7]; Homo sapiens, range over four cancer cell lines, read-out: IC50 range against HeLa, PC-3, HEp-2 and HepG2 cells): 3.2 to 6.4 µM | IC50 [3]: 9.2 ± 0.1 µM | %G0/G1 ([8]; 1.0 μM): 51.2% | %G2/M ([8]; 1.0 μM): 17.1% | %S ([8]; 1.0 μM): 31.7% | %G0/G1 ([8]; 2.0 μM): 49.3% | %G2/M ([8]; 2.0 μM): 16.7% | %S ([8]; 2.0 μM): 34.0% | %G0/G1 ([8]; 4.0 μM): 45.8% | %G2/M ([8]; 4.0 μM): 18.0% | %S ([8]; 4.0 μM): 36.2% | IC50 [4, 11]: 5.2 ± 0.1 µM | IC50 [9]: 6.4 ± 0.1 µM | IC50 [5]: 3.2 ± 0.8 µM | IC50 [10]: 3.3 ± 0.2 µM
